One molecule from publication PMC5662078, “Doliroside A from Dolichos falcata Klein suppressing amyloid β-protein 42 fibrillogenesis: An insight at molecular level” (PLoS ONE, 2017) can be followed below.

This assay addresses T1, amyloid β-protein 42 (Aβ42) (Homo sapiens, UniProt P05067).
T1 construct: gene APP
Kind of assay: ThT fluorescence fibrillation assay of synthetic Aβ[…]); supported by DSC Tm shifts, CD and AFM. Type of assay: biochemical.

T1 sequence (P05067 672-713): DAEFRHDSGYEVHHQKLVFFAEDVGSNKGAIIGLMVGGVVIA

`COC(=O)[C@]1(C)C(OC2OC(CO)C(O)C(O)C2O)[C@@H](O)C[C@@]2(C)C1CC[C@]1(C)C2CC=C2[C@@H]3CC(C)(C)CCC3(C(=O)O)CC[C@]21C` (stereo partly shown) [DA, doliroside A]: the IC50 is 26.6 ± 1.6 µM.
